Data from PubChem BioAssay AID330 (DTP/NCI, 2004).
“And” between values parts separate entries of the source, which are not always exact repeats. Equal entries are not always repeated. Inconclusive results and toxic doses are left out.

System: P388 leukemia ip, CD2F1 mice, survival T/C
Experiment: NCI In Vivo Anticancer Drug Screen. Data for tumor model P388 Leukemia (intraperitoneal) in CD2F1 (CDF1) mice
Conditions: endpoint: median survival time, higher = longer survival
In short: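 Mice carrying the transplanted tumor received test compound or vehicle. Survival was recorded in each group, and the value is the treated-group measurement divided by that of the vehicle-treated control group.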

[1] = dose: 50.0 mg/kg/injection, schedule: Q01DX009 (ip), vehicle: saline
[2] = dose: 50.0 mg/kg/injection, schedule: Q01DX005 (ip), vehicle: saline with Tween-80
[3] = dose: 100.0 mg/kg/injection, schedule: Q01DX005 (ip), vehicle: saline with Tween-80
[4] = dose: 200.0 mg/kg/injection, schedule: Q01DX005 (ip), vehicle: saline with Tween-80
[5] = dose: 50.0 mg/kg/injection, schedule: Q04DX003 (ip), vehicle: saline with Tween-80
[6] = dose: 100.0 mg/kg/injection, schedule: Q04DX003 (ip), vehicle: saline with Tween-80
[7] = dose: 200.0 mg/kg/injection, schedule: Q04DX003 (ip), vehicle: saline with Tween-80
[8] = dose: 60.0 mg/kg/injection, schedule: Q01DX005 (ip), vehicle: saline with Tween-80
[9] = dose: 120.0 mg/kg/injection, schedule: Q01DX005 (ip), vehicle: saline with Tween-80
[10] = dose: 240.0 mg/kg/injection, schedule: Q01DX005 (ip), vehicle: saline with Tween-80
[11] = dose: 50.0 mg/kg/injection, schedule: Q01DX009 (ip), vehicle: Klucel (hydroxypropylcellulose) (HPC)
[12] = dose: 100.0 mg/kg/injection, schedule: Q01DX009 (ip), vehicle: Klucel (hydroxypropylcellulose) (HPC)
[13] = dose: 200.0 mg/kg/injection, schedule: Q01DX009 (ip), vehicle: Klucel (hydroxypropylcellulose) (HPC)
[14] = dose: 7.5 mg/kg/injection, schedule: Q01DX005 (ip), vehicle: saline with Tween-80
[15] = dose: 15.0 mg/kg/injection, schedule: Q01DX005 (ip), vehicle: saline with Tween-80

Cc1cccc([NH-])n1.Cc1cccc([NH-])n1.Cc1cccc([NH-])n1.Cc1cccc([NH-])n1.[Cl][Rh][Cl]
T/C (dose: 6.25 mg/kg/injection, schedule: Q01DX009 (ip), vehicle: DMSO): 101 % of control
T/C (dose: 12.5 mg/kg/injection, schedule: Q01DX009 (ip), vehicle: DMSO): 99 % of control
T/C (dose: 25.0 mg/kg/injection, schedule: Q01DX009 (ip), vehicle: DMSO): 101 % of control
T/C [1]: 101 % of control

COCCC(=O)SCc1ccccc1
T/C [2]: 103 % of control
T/C [3]: 96 % of control
T/C [4]: 107 % of control

O=C(CNC(=O)OCc1ccccc1)NCC1OC(n2cnc3c(=O)[nH]cnc32)C(O)C1O (configuration not stated)
T/C [5]: 102 % of control
T/C [6]: 94 % of control
T/C [7]: 98 % of control

O=c1c(-c2ccccc2)nc2ccccc2n1CC1CCCN2CCCC[C@H]12 (some centres not stated)
T/C [8]: 99 % of control
T/C [9]: 97 % of control
T/C [10]: 102 % of control

O=C(Nc1cccc2ccccc12)OCC1CC1
T/C [5]: 98 % of control
T/C [6]: 102 % of control
T/C [7]: 100 % of control
T/C (dose: 400.0 mg/kg/injection, schedule: Q04DX003 (ip), vehicle: saline with Tween-80): 100 % of control

COc1ccc(CC(C#N)c2ccc(OC)cc2)cc1 (configuration not stated)
T/C [11]: 111 % of control and 96 % of control
T/C [12]: 100 % of control and 96 % of control
T/C [13]: 99 % of control and 93 % of control

C=C1N(c2nc(Cl)nc(Cl)n2)c2ccccc2C1(C)C
T/C (dose: 12.5 mg/kg/injection, schedule: Q01DX009 (ip), vehicle: saline with Tween-80): 113 % of control
T/C (dose: 25.0 mg/kg/injection, schedule: Q01DX009 (ip), vehicle: saline with Tween-80): 104 % of control
T/C (dose: 50.0 mg/kg/injection, schedule: Q01DX009 (ip), vehicle: saline with Tween-80): 124 % of control and 86 % of control

NC(=O)c1cc2c3ccccc3ncc2c2ccccc12
T/C (dose: 100.0 mg/kg/injection, schedule: Q01DX001 (ip), vehicle: saline with Tween-80): 100 % of control
T/C (dose: 200.0 mg/kg/injection, schedule: Q01DX001 (ip), vehicle: saline with Tween-80): 100 % of control
T/C (dose: 400.0 mg/kg/injection, schedule: Q01DX001 (ip), vehicle: saline with Tween-80): 100 % of control

Cc1ccc(N=Nc2c(-c3cccs3)nn(C(=S)S)c2C(F)(F)F)cc1
T/C (dose: 50.0 mg/kg/injection, schedule: Q01DX005 (ip), vehicle: Klucel (hydroxypropylcellulose) (HPC)): 92 % of control
T/C (dose: 100.0 mg/kg/injection, schedule: Q01DX005 (ip), vehicle: Klucel (hydroxypropylcellulose) (HPC)): 92 % of control
T/C (dose: 200.0 mg/kg/injection, schedule: Q01DX005 (ip), vehicle: Klucel (hydroxypropylcellulose) (HPC)): 87 % of control

CCOC(=O)CC1NCCc2c1[nH]c1ccccc21 (configuration not stated)
T/C (dose: 6.25 mg/kg/injection, schedule: Q01DX001 (ip), vehicle: saline sonified): 90 % of control
T/C (dose: 12.5 mg/kg/injection, schedule: Q01DX001 (ip), vehicle: saline sonified): 90 % of control
T/C (dose: 25.0 mg/kg/injection, schedule: Q01DX001 (ip), vehicle: saline sonified): 100 % of control

O=S(=O)(CCl)OCCCCOS(=O)(=O)CCl
T/C (dose: 25.0 mg/kg/injection, schedule: Q04DX003 (ip), vehicle: saline sonified): 109 % of control
T/C (dose: 50.0 mg/kg/injection, schedule: Q04DX003 (ip), vehicle: saline sonified): 104 % of control
T/C (dose: 66.0 mg/kg/injection, schedule: Q01DX009 (ip), vehicle: saline): 120 % of control
T/C (dose: 100.0 mg/kg/injection, schedule: Q04DX003 (ip), vehicle: saline sonified): 118 % of control
T/C (dose: 150.0 mg/kg/injection, schedule: Q01DX009 (ip), vehicle: saline): 150 % of control

N=C(N)c1ccc(/C=C/c2cc3cc(C(=N)N)ccc3o2)cc1
T/C (dose: 12.5 mg/kg/injection, schedule: Q04DX003 (ip), vehicle: suspension in saline): 112 % of control
T/C (dose: 25.0 mg/kg/injection, schedule: Q04DX003 (ip), vehicle: suspension in saline): 118 % of control
T/C (dose: 50.0 mg/kg/injection, schedule: Q04DX003 (ip), vehicle: suspension in saline): 120 % of control
T/C (dose: 100.0 mg/kg/injection, schedule: Q04DX003 (ip), vehicle: suspension in saline): 178 % of control

CN(C)c1ccc2[nH]c3c(C(N)=O)cc(=O)c(=O)c=3oc2c1
T/C (dose: 25.0 mg/kg/injection, schedule: Q01DX005 (ip), vehicle: saline with Tween-80): 100 % of control and 107 % of control
T/C [2]: 98 % of control and 100 % of control (2×)
T/C [3]: 100 % of control and 120 % of control and 97 % of control
T/C [4]: 98 % of control and 107 % of control and 117 % of control

Cc1ccc(S(=O)(=O)OCCN(CCOS(=O)(=O)c2ccc(C)cc2)S(=O)(=O)c2ccc(C)cc2)cc1
T/C [11]: 108 % of control
T/C [12]: 100 % of control
T/C [13]: 102 % of control
T/C (dose: 400.0 mg/kg/injection, schedule: Q01DX009 (ip), vehicle: Klucel (hydroxypropylcellulose) (HPC)): 95 % of control

CCSSC1(C)C(=O)N2CCCC2C(=O)N1C (configuration not stated)
T/C (dose: 25.0 mg/kg/injection, schedule: Q04DX003 (ip), vehicle: saline): 109 % of control
T/C (dose: 50.0 mg/kg/injection, schedule: Q04DX003 (ip), vehicle: saline): 103 % of control
T/C (dose: 100.0 mg/kg/injection, schedule: Q04DX003 (ip), vehicle: saline): 104 % of control

O=C(O)c1c(C(=O)O)c2cccn2c2c1cnn2-c1ccccc1
T/C [8]: 102 % of control
T/C [9]: 100 % of control
T/C [10]: 100 % of control

O=C1NC(O)c2cccc(Cl)c2O1 (configuration not stated)
T/C [2]: 102 % of control
T/C [3]: 102 % of control
T/C [4]: 107 % of control

CC(C)C12OC1CC13OC1C1OC1C1OC132 (configuration not stated)
T/C (dose: 100.0 mg/kg/injection, schedule: Q04DX002 (ip), vehicle: saline with Tween-80): 101 % of control
T/C (dose: 200.0 mg/kg/injection, schedule: Q04DX002 (ip), vehicle: saline with Tween-80): 99 % of control
T/C (dose: 400.0 mg/kg/injection, schedule: Q04DX002 (ip), vehicle: saline with Tween-80): 94 % of control

O=C(NCCCl)N1CCC(CN=c2cc3n(-c4ccc(Cl)cc4)c4ccccc4nc-3cc2Nc2ccc(Cl)cc2)CC1
T/C [14]: 88 % of control
T/C [15]: 88 % of control
T/C [9]: 94 % of control
T/C [10]: 97 % of control

Cc1cc(O)c2c(c1)C(=O)C(c1c(O)c3c(C)cccc3oc1=O)=C(c1c(O)c3c(C)cccc3oc1=O)C2=O
T/C (dose: 14.0 mg/kg/injection, schedule: Q01DX005 (ip), vehicle: Klucel (hydroxypropylcellulose) (HPC)): 92 % of control
T/C (dose: 28.0 mg/kg/injection, schedule: Q01DX005 (ip), vehicle: Klucel (hydroxypropylcellulose) (HPC)): 91 % of control
T/C (dose: 56.0 mg/kg/injection, schedule: Q01DX005 (ip), vehicle: Klucel (hydroxypropylcellulose) (HPC)): 89 % of control
T/C (dose: 112.0 mg/kg/injection, schedule: Q01DX005 (ip), vehicle: Klucel (hydroxypropylcellulose) (HPC)): 89 % of control

CCC[CH2][Sn]([CH2]CCC)([S]CCS(=O)(=O)O)[S]CCS(=O)(=O)O
T/C (dose: 60.0 mg/kg/injection, schedule: Q01DX005 (ip), vehicle: Klucel (hydroxypropylcellulose) (HPC)): 100 % of control
T/C (dose: 120.0 mg/kg/injection, schedule: Q01DX005 (ip), vehicle: Klucel (hydroxypropylcellulose) (HPC)): 101 % of control
T/C (dose: 240.0 mg/kg/injection, schedule: Q01DX005 (ip), vehicle: Klucel (hydroxypropylcellulose) (HPC)): 99 % of control

O=C(CNC(=O)Nc1ccc(NC(=O)NCC(=O)Nc2ccc(C3=NCCN3)cc2)cc1)Nc1ccc(C2=NCCN2)cc1
T/C [1]: 105 % of control and 106 % of control
T/C (dose: 100.0 mg/kg/injection, schedule: Q01DX009 (ip), vehicle: saline): 93 % of control
T/C (dose: 200.0 mg/kg/injection, schedule: Q01DX009 (ip), vehicle: saline): 111 % of control and 97 % of control

CCCCOc1cc(C(=O)NCCN(C)C)c2ccccc2n1
T/C [14]: 104 % of control
T/C [15]: 106 % of control
T/C (dose: 30.0 mg/kg/injection, schedule: Q01DX005 (ip), vehicle: saline with Tween-80): 106 % of control

COc1cc(C2Oc3c(OC)cc(CC4C(=O)OCC4Cc4ccc(OC)c(OC)c4)cc3C2CO)ccc1O (configuration not stated)
T/C (dose: 2.5 mg/kg/injection, schedule: Q01DX009 (ip), vehicle: saline with Tween-80): 104 % of control
T/C (dose: 5.0 mg/kg/injection, schedule: Q01DX009 (ip), vehicle: saline with Tween-80): 102 % of control
T/C (dose: 10.0 mg/kg/injection, schedule: Q01DX009 (ip), vehicle: saline with Tween-80): 101 % of control
T/C (dose: 20.0 mg/kg/injection, schedule: Q01DX009 (ip), vehicle: saline with Tween-80): 101 % of control
